Results from patent US20110123483A1, “HMGB1 FOR CANCER TREATMENT” (DEUTSCHES KREBSFORSCHUNGSZENTRUM, priority 2009, published 2011).

Assays:
[1] = system: U251MG glioma cells; experiment: Cell proliferation, counting in a Neubauer chamber; assay type: cell-based, human; settings: increasing concentrations, several days (FIG. 1A)
Method: 20,000 U251MG glioblastoma cells or human astrocytic cells (ScienCell) were plated into 96-well plates. After 24 h cells were treated with rhHMGB1 (Sigma Aldrich) or rat recombinant HMGB1 (generously provided by Angelika Bierhaus, Heidelberg, Germany), and TRAIL (for 24 h) or Temozolomide (for 72 h) alone or in combination, respectively. Cell survival was measured by crystal violet staining as described previously (Gdynia et al., 2007). Cell proliferation was assessed by seeding 50,000 U251 MG cells in 6 cm culture plates and treatment with rhHMGB1, followed by counting the cells in a Neubauer chamber at day 0, 2, 4 and 5.

[2] = system: NCH421 K glioblastoma stem-cell-like cells; experiment: Cell morphology / spheroid cell aggregates; assay type: cell-based; settings: FIG. 12B
[3] = system: U251MG xenograft tumors; experiment: Subcutaneous U251MG xenograft tumors in CD1 nude mice, systemic treatment; assay type: in vivo
Method: All animal work was carried out in accordance with the NIH guidelines Guide for the Care and Use of Laboratory Animals. Six-week-old male athymic CD1 nude mice (Charles River, n=8) were injected subcutaneously with 7.5×10^6 U251MG cells in 100 μl PBS in the right flank using a 30-gauge needle. After 3 weeks, treatment of the xenograft tumors was initiated with 10 μg rhHMGB1 in 500 μl PBS or PBS only (control group) by daily intraperitoneal injections at the contralateral side for 6 weeks. Tumor volume was measured by a calliper using the ellipsoid formula (length×width×height×½) as described (Tomayko and Reynolds, 1989). After 6 weeks of treatment the animals were sacrificed and the paraffin embedded tumor sections were subjected to immunofluorescence analysis as outlined below.
Paraffin embedded slices of mouse tissue or xenograft tumors were dewaxed and dehydrated using xylene and ethanol, followed by heat-induced antigen retrieval using 10 mM citrate buffer, pH 6.0, for 3×5 min in a cooker. The sections were incubated with 1:10 COX IV (Alexa Fluor® 488 conjugate) antibody over night at 4° C., washed with PBS and covered with Vectashield® mounting medium (H-1200, Vector Laboratories Inc., 94010 CA, USA) containing DAPI (1.5 μg/ml).

[4] = system: U251MG glioma cells; experiment: Subcellular fractionation after iodine-125 labelled rhHMGB1; immunofluorescence colocalization; assay type: cell-based, human; settings: 40 nM for 24 h (FIG. 8B)
Method: U251 cells were seeded on 10 cm culture dishes. […], 4 h, 16 h and 24 h, the cells were detached carefully by incubation with cell dissociation buffer (30 min) in order to protect possible surface proteinreceptor-complexes, harvested, and subjected to subcellular fractionation using the ApoAlert Fractionation Kit as described below (the plasma membrane fraction was extracted from the cytoplasmatic fraction by a last centrifugation step of 400.000×g for 15 min at 4° C.). Successful fractionation was confirmed by western blot. Successful coupling of the HMGB1-tyrosine residues with I-125 was shown by the high radioactivity in the protein fraction of sephadex G25 gel filtration (early eluates). Fraction 4 was used for the incubation of cells with I-125-HMGB1. For radioactivity measurements cells were solubilized in 0.5M NaOH and mixed with 10 ml LSC cocktail (Ultima Gold, Perkin Elmer, Waltham Mass.). The radioactivity of each subcellular fraction was measured in a liquid scintillation counter (Packard TriCarb 2900, Meriden, Ill.) by using the Compton effect.
Enrichment of mitochondrial fractions was performed using the ApoAlert Cell Fractionation Kit (Clontech, Mountain View, Calif.) as described previously (Gdynia et al., 2008). […]

[5] = system: U251MG cells; experiment: Megamitochondria formation, COX IV immunofluorescence and electron microscopy; assay type: cell-based, human
Method: U251MG cells were plated onto 8 well chamber-slides (Nunc, Wiesbaden, Germany) or grown confluently in 6 cm culture dishes containing round glass cover plates. For some samples, the cells were stained with the fluorescent dye MitoTracker Red CMXRos (50 nM, Molecular Probes, Invitrogen, Karlsruhe, Germany) for 30 min at 37° C. 24 h after seeding, the cells were fixed for 15 min with 2% paraformaldehyde solution or pre-cooled 100% methanol (on ice), washed 3× with PBS, permeabilized on ice with PBS containing 0.2% TritonX-100 and 1% fetal calf serum for 5 min and washed again three times with PBS containing 1% or 5% FCS. After blocking with PBS containing 1% or 5% FCS at room temperature for 60 min, permeabilized cells were incubated with monoclonal rabbit fluoro-conjugated anti-COX IV antibody (1:10, 3E11, Alexa Fluor 488 conjugate, Cell Signaling) or monoclonal mouse anti-polyhis-tag antibody (1:1000, R&D Systems) for 30 min at 4° C. and then washed three times with PBS with 1% or 5% FCS. In case the primary antibody was unconjugated to a fluorescent dye, goat anti-mouse or anti-rabbit secondary antibody Alexa Fluor® 488 or […] (1:200, Invitrogen GmbH, Karlsruhe, Germany) together with 1 μg/ml 4′,6-Diamidino-2-phenylindol (DAPI) was added for 30 min at 4° C. in a dark chamber. After washing three times with PBS with 1% or 5% FCS, cells were covered with cover slips. Photomicrographs were taken using a Olympus VANOX-T (AH-2) fluorescence microscope with immersion oil, ne 23=1.518 and the Soft Imaging System AnalysisB software (Leica Microsystems, Wetzlar, Germany) or on a confocal microscope (Leica SP2).
Cells were fixed in situ with 2.3% glutaraldehyde in 50 mM sodium cacodylat (pH 7.2) for 30 min at 4° C., scraped from the plates, collected by low-speed centrifugation at 200×g for 10 min at 4° C. and successively stained with 2% osmium tetroxide and 0.5% uranyl acetate. After dehydration and embedding in Epru the probes were processed for ultrathin section. Micrographs were taken with a Zeiss EM-10A electron microscope at 80 kV. The magnification indicator was routinely controlled by the use of a grating replica.

rhHMGB1: recombinant human High Mobility Group B1 protein (Sigma Aldrich)
induction of cell death [1]: induction of cell death even at low nanomolar concentrations
tumor cell proliferation [1]: strong inhibition
anti-proliferative effect, spheroid cell aggregates [2]: clearly smaller and fewer spheroid cell aggregates
tumor size versus control group ([3]; 10 μg daily intraperitoneal, after six weeks (FIG. 1D)): significantly smaller tumors than the control group
formation of megamitochondria in xenograft tumor tissue ([3]; after a 6 week systemic treatment (FIG. 9)): formation of megamitochondria was also observed
mitochondrial localization, co-staining with mitochondrial marker (MitoTracker) [4]: confirmed
formation of megamitochondria, COX IV immunofluorescence ([5]; FIG. 8C): generation of extremely enlarged spherical mitochondria
autophagosomes or rupture of the outer cell membrane, electron microscopy ([5]; FIG. 10): not observed
number and size of megamitochondria, electron microscopy ([5]; FIG. 10): increased in a time- and concentration-dependent manner
typical morphological features of apoptosis (membrane blebbing, apoptotic bodies, chromatin condensation) ([5]; after rhHMGB1 treatment): could not be detected
